Experimental data taken from PMC10254233, “Synthesis and In Vitro Biological Evaluation of p-Carborane-Based Di-tert-butylphenol Analogs” (Molecules, 2023).

Columns and labels:
5-LO = biological target: T1, 5-LO (Homo sapiens, UniProt P09917); experiment: 5-LO product formation in intact PMNL; conditions: read-out: IC50 inhibition of 5-LO product formation in intact PMNL; intact PMNL, A23187 + arachidonic acid, mean of at least three experiments
T1 sequence (P09917 1-674): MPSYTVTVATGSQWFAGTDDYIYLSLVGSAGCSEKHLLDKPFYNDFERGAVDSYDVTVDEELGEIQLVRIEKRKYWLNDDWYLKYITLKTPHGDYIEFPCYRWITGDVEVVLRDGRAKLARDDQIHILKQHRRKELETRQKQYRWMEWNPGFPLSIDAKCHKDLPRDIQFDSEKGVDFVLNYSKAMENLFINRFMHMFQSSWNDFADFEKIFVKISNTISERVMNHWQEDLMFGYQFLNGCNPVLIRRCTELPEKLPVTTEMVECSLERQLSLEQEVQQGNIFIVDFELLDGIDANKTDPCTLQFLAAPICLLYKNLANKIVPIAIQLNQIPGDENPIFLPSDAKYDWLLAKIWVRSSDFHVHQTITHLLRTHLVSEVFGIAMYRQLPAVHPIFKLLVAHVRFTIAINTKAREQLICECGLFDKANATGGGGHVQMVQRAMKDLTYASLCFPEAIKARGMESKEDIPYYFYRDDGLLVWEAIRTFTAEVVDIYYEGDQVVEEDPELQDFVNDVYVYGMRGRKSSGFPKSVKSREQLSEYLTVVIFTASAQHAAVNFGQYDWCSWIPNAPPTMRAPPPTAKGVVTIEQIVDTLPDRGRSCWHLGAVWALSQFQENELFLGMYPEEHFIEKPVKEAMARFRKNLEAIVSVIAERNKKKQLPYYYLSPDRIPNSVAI
Protocol: After 10 min at 37 °C, the reaction was stopped by addition of ice-cold methanol (1 mL). HCl (30 μL, 1 M), prostaglandin B1 (200 ng) and PBS (500 μL) were added and the formed metabolites were extracted and analyzed by HPLC as described previously [96].

[1] = NMR spectroscopic stability study in aqueous DMSO-d6; assay type: physicochemical; conditions: room temperature, in air, four weeks, 1H and 11B{1H} NMR
Excerpt: Solubility and chemical stability in organic solvents, such as aqueous dimethyl sulfoxide (DMSO), are crucial for biological investigations. Therefore, the stability of the p-carborane-containing compounds R-830-Cb, S-2474-Cb, KME-4-Cb, and E-5110-Cb in aqueous DMSO-d6 at room temperature in air was studied by ^1H- and ^11B{^1H}-NMR spectroscopy over four weeks and confirmed that all compounds are stable (see Supplementary Materials, Figure S24).

HCT116 cells [2] = experiment: Acridine orange (AO) staining for autophagy; assay type: cell-based, human; conditions: HCT116, IC50 dose, 72 h
Excerpt: Apostat staining confirmed that apoptosis was in correlation with the activation of caspases (Figure 3C). […] The […] production of reactive oxygen species explains the observed effects of the applied treatments, namely inhibition of proliferation and induction of apoptosis (Figure 3E). It is widely accepted that drug-mediated hyperproduction of reactive oxygen species that are not buffered by cellular anti-oxidative protection is responsible for cell death induction. […] The described feature is acquired during disease progression, and it is tightly connected with abnormal blood supply and a hypoxic microenvironment. Therefore, elimination of these molecules results in a rapid decrease in cell viability. […]
Non-adherent cells were removed two hours after seeding and treatment was applied. Cell viability was determined after 72 h using a crystal violet (CV) assay. […]
and R-830-Cb (50 μM) for 72 h. […] After 15 min incubation at room temperature (RT) protected from light the cells were resuspended in AnnV-binding buffer and analysed using flow cytom-etry. HCT116 cells were incubated with pan-caspase inhibitor Apostat for 30 min at 37 °C to determine whether detected apoptosis was mediated by caspase activation. […]

HCT116 cells [3] = experiment: Cell proliferation assay (CFSE staining); assay type: cell-based, human; conditions: HCT116, IC50 dose, 72 h, compared to R-830

| Substance | IC50 (5-LO) | stability in aqueous DMSO-d6 [1] | autophagy (AO staining) (HCT116 cells [2]) | cell division (CFSE) (HCT116 cells [3]) |
| --- | --- | --- | --- | --- |
| (3E)-1-Hydroxy-12-(methylene-[2′-ethylisothiazolidine-1′,1′-dioxide])-1,12-dicarba-closo-dodecaborane(12) [Compound S-2474-Cb] | < 30 nM | stable |  |  |
| (3E)-1-Hydroxy-12-(methylene-[1′-methoxypyrrolidine-2′-one])-1,12-dicarba-closo-dodecaborane(12) [Compound E-5110-Cb] | 220 nM | stable |  |  |
| 1-Hydroxy-12-(thiophen-2′-carbonyl)-1,12-dicarba-closo-dodecaborane(12) [Compound R-830-Cb] | 650 nM | stable | intense autophagy | more severely affected |
| (3E)-1-Hydroxy-12-(methylene-[dihydrofurane-2′(3H)-one])-1,12-dicarba-closo-dodecaborane(12) [KME-4-Cb] | 70 nM | stable |  |  |
